Experimental data as given in patent publication US20030060481A1 (priority 1999, published 2003).

Legend:
[1] = system: kainate model of epilepsy; test: Onset of spontaneous recurrent seizures in the kainate model of epilepsy
[2] = system: Wistar, adult, male, rats; test: Induction of status epilepticus by systemic pilocarpine; type: in vivo; conditions: pilocarpine 320 mg/Kg intraperitoneal

SMILES	Effect on onset of spontaneous recurrent seizures (in words) [1]	Latency for the onset of status epilepticus after injection [2]
CN1[C@@H]2C[C@@H](OC(=O)[C@H](CO)c3ccccc3)C[C@H]1[C@@H]1O[C@@H]12 [scopolamine]	retard or even suppress the onset of spontaneous recurrent seizures	
CC[C@@H]1C(=O)OC[C@@H]1Cc1cncn1C [pilocarpine]		19 ± 5 min
